The test system of the assay is L1210 leukemia iv in BDF1 mice, survival T/C. In words: NCI In Vivo Anticancer Drug Screen. Data for tumor model L1210 Leukemia (intravenous) in B6D2F1 (BDF1) mice. To be noted: higher = longer survival. The protocol:
The antitumor activity of compounds was measured in mice bearing transplantable tumors. Survival or tumor size were measured and the results are expressed as the measurement made in the treated group (T) divided by the measurement made in the vehicle treated control group (C). The tumor model used in this assay is L1210 Leukemia (intravenous) in B6D2F1 (BDF1) mice

The text below walks through data of PubChem BioAssay AID254 (DTP/NCI, 2004).

Values joined by “and” are separate entries in the source; they are usually repeats but may differ in a detail not shown here. Identical values can stand only once. Inconclusive results and toxic doses are left out.

For `COc1cccc2c1C(=O)c1c(O)c3c(c(O)c1C2=O)C[C@@](O)(C(C)=O)C[C@@H]3OC1CC(N)C(O)C(C)O1` (stereo partly specified), the T/C runs as follows: (endpoint: mean survival time, dose: 3.0 mg/kg/injection, schedule: Q04DX003 (iv), vehicle: water) 216 % of control; (endpoint: mean survival time, dose: 5.0 mg/kg/injection, schedule: Q01DX001 (iv), vehicle: saline) 105 % of control; (endpoint: mean survival time, dose: 5.0 mg/kg/injection, schedule: Q04DX003 (iv), vehicle: water) 121 % of control; (endpoint: mean survival time, dose: 10.0 mg/kg/injection, schedule: Q01DX001 (iv), vehicle: saline) 115 % of control; (endpoint: mean survival time, dose: 14.0 mg/kg/injection, schedule: Q04DX003 (iv), vehicle: water) 160 % of control; (endpoint: mean survival time, dose: 20.0 mg/kg/injection, schedule: Q01DX001 (iv), vehicle: saline) 150 % of control. The T/C (endpoint: mean survival time, dose: 23.0 mg/kg/injection, schedule: Q04DX003 (iv), vehicle: water) is 84 % of control.

On to `Nc1n[nH]c(N)n1`, for which the T/C (endpoint: mean survival time, dose: 100.0 mg/kg/injection, schedule: Q03HX024 (ip), vehicle: saline) is 104 % of control and 91 % of control and 100 % of control; the T/C (endpoint: mean survival time, dose: 150.0 mg/kg/injection, schedule: Q03HX024 (ip), vehicle: saline) was 103 % of control (2×) and 104 % of control; the T/C (endpoint: mean survival time, dose: 225.0 mg/kg/injection, schedule: Q03HX024 (ip), vehicle: saline) is 112 % of control and 116 % of control; the T/C (endpoint: mean survival time, dose: 335.0 mg/kg/injection, schedule: Q03HX024 (ip), vehicle: saline) was 153 % of control and 159 % of control (2×); the T/C (endpoint: mean survival time, dose: 500.0 mg/kg/injection, schedule: Q03HX024 (ip), vehicle: saline) is 201 % of control and 215 % of control and 257 % of control; the T/C (endpoint: mean survival time, dose: 4000.0 mg/kg/injection, schedule: Q01DX001 (ip), vehicle: saline) was 120 % of control.

For the molecule `O=C1N[C@@H]([C@H]2CC[C@H](Cl)CN2)C(=O)N[C@H]1[C@H]1CC[C@H](Cl)CN1`, the T/C runs as follows: (endpoint: mean survival time, dose: 4.4 mg/kg/injection, schedule: Q01DX001 (ip), vehicle: saline) 186 % of control; (endpoint: mean survival time, dose: 6.6 mg/kg/injection, schedule: Q01DX001 (ip), vehicle: saline) 202 % of control; (endpoint: mean survival time, dose: 10.0 mg/kg/injection, schedule: Q01DX001 (ip), vehicle: saline) 227 % of control; (endpoint: mean survival time, dose: 15.0 mg/kg/injection, schedule: Q01DX001 (ip), vehicle: saline) 163 % of control.

On to `O=NN(CCCl)C(=O)NC1C2CC3CC(C2)CC1C3` (stereo unspecified), for which the T/C is 107 % of control and 118 % of control (endpoint: mean survival time, dose: 22.0 mg/kg/injection, schedule: Q01DX001 (ip), vehicle: other); 160 % of control (endpoint: mean survival time, dose: 45.0 mg/kg/injection, schedule: Q01DX001 (ip), vehicle: other); 156 % of control (endpoint: mean survival time, dose: 91.0 mg/kg/injection, schedule: Q01DX001 (ip), vehicle: other); 166 % of control and 229 % of control (endpoint: mean survival time, dose: 181.0 mg/kg/injection, schedule: Q01DX001 (ip), vehicle: other); 440 % of control and 514 % of control (endpoint: mean survival time, dose: 362.0 mg/kg/injection, schedule: Q01DX001 (ip), vehicle: other).

On to `Nc1nc(=S)c2[nH]cnc2[nH]1`, for which the T/C (endpoint: mean survival time, dose: 0.4 mg/kg/injection, schedule: Q01DX008 (ip), vehicle: alkali diluted with saline) is 107 % of control; the T/C (endpoint: mean survival time, dose: 0.4 mg/kg/injection, schedule: Q06HX008 (ip), vehicle: alkali diluted with saline) is 117 % of control; the T/C (endpoint: mean survival time, dose: 0.4 mg/kg/injection, schedule: Q12HX008 (ip), vehicle: alkali diluted with saline) is 114 % of control; the T/C (endpoint: mean survival time, dose: 0.6 mg/kg/injection, schedule: Q01DX008 (ip), vehicle: alkali diluted with saline) is 114 % of control; the T/C (endpoint: mean survival time, dose: 0.6 mg/kg/injection, schedule: Q01HX008 (ip), vehicle: alkali diluted with saline) is 152 % of control; the T/C (endpoint: mean survival time, dose: 4.8 mg/kg/injection, schedule: Q01DX001 (ip), vehicle: alkali diluted with saline) was 156 % of control. In addition, the T/C was 195 % of control (endpoint: mean survival time, dose: 115.0 mg/kg/injection, schedule: Q01DX001 (ip), vehicle: alkali diluted with saline); 206 % of control and 227 % of control (endpoint: median survival time, dose: 20.0 mg/kg/injection, schedule: Q04DX002 (ip), vehicle: alkali diluted with saline); 198 % of control and 231 % of control (endpoint: median survival time, dose: 25.0 mg/kg/injection, schedule: Q04DX002 (ip), vehicle: alkali diluted with saline).
